Measured values as given in patent publication US10526580B2, “Differentiated cell population of endothelial cells derived from human pluripotent stem cells, composition, system, kit and uses thereof” (BIOCANT-ASSOCIAÇÃO DE TRANSFERÊNCIA DE TECNOLOGIA, priority 2012, dated 2020).

Columns and labels:
[1] = system: microvessels formed by HAECs; assay: Matrigel assay, disruption of vascular networks; format: cell-based, human; details: 1 μM, 20 h, on top of Matrigel
Description: (§1) To test the 7-Cyclo properties in the disruption of vascular networks, microvessels of hESC-derived ECs, HUAECs and HAECs were formed on top of Matrigel and then exposed to the drug for 20 h.
(§2) A 24-well plate was coated with Matrigel (0.4 mL, BD Biosciences) per well and incubated at 37° C. for 30 min. Cells were seeded on top of the polymerized Matrigel at a concentration of 1×10^5 cells per 300 μL of EGM-2 medium. After 1 h of incubation at 37° C., an extra 1 mL of EGM-2 was added. After 12 h, medium supplemented with 7-Cyclo (0, 0.1 or 1 μM) was added. Cord formation was evaluated by phase contrast microscopy (Carl Zeiss International, Germany), at time 0, 3 h and 20 h after 7-Cyclo addition.

[2] = system: microvessels formed by HUAECs; assay: Matrigel assay, disruption of vascular networks; format: cell-based, human; details: 1 μM, 20 h, on top of Matrigel
Description: as §1, §2

[3] = system: microvessels of hESC-derived ECs; assay: Matrigel assay, disruption of vascular networks; format: cell-based, human; details: 1 μM, 20 h, on top of Matrigel
Description: as §1, §2

[4] = system: mouse aortic endothelial cells (mAEC); assay: Gene expression in mouse aortic endothelial cells after 7-Cyclo; format: cell-based
Description: To further validate the effects of 7-Cyclo at the embryonic vasculature, mouse embryonic ECs were incubated at day 12.5 (mAEC E12.5) and postnatal day 1 (p1) with 7-Cyclo (1 μM) for 24 h. […] In contrast, 7-Cyclo has no effect in p1 ECs. The degree of action of 7-Cyclo in mAEC E12.5 is similar to the one identified in hESC-derived ECs (FIG. 5C).
Total RNA from experimental groups was isolated using a protocol with TRIzol (Invitrogen) and RNeasy Minikit (Qiagen, Valencia). cDNA was prepared from 1 μg total RNA using Taqman Reverse transcription reagents (Applied Biosystems, CA). Quantitative PCR (qPCR) was performed using Power SYBR Green PCR Master Mix and the detection using an ABI PRISM 7500 Fast System (Applied Biosystems). Quantification of target genes was performed relative to the reference GAPDH gene: relative expression=2^[−(Ctsample^−CtGADPH^)]. The mean minimal cycle threshold values (Ct) were calculated from 4 reactions. In some cases, gene expression in each experimental group was normalized to the relative gene expression found in HUVECs, HUAECs or undifferentiated hESCs. Primer sequences are published in Table 7 of expanded materials and methods.

Nc1ncnc2c1c(-c1ccc(Oc3ccccc3)cc1)cn2C1CCCC1 [7-Cyclo, 7-cyclopentyl-5-(4-phenoxy)phenyl-7H-pyrrolo[2,3-d]pyrimidin-4-ylamine]
effect on network length and number of sprouts in microvessels [1]: negligible effect
effect on network length and number of sprouts in microvessels [2]: negligible effect
network length and number of sprouts in microvessels [3]: statistically significant reduction
inflammation, oxidative stress sensing, vascular modulation and vascular injury sensing genes ([4]; mAEC at E12.5, 1 μM for 24 h, versus cells without treatment): statistically up-regulated
effect on gene expression ([4]; postnatal day 1 (p1) ECs, 1 μM for 24 h): no effect
